From the supplement of paper PMC10307832

What was measured:
Assay in all cases: relative viability (nuclei count vs DMSO), 5 days (fraction); higher = more cells survive
AZ3146 + OSI-027 = compound: CN1CCC(CC1)OC2=CC(=C(C=C2)NC3=NC=C4C(=N3)N(C(=O)N4C)C5CCCC5)OC [AZ3146] + COc1cccc2cc(-c3nc([C@H]4CC[C@H](C(=O)O)CC4)n4ncnc(N)c34)[nH]c12 [OSI-027] (partner 0.5 µM)
Outline: (§1)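 Lung cancer cell lines were seeded in 1536-well plates and dosed by pin tool the next day, with either a single drug or a fixed anchor-drug dose combined with five library-drug doses (not always all listed) spaced in √10 steps. Five days later, one step fixed the cells and stained their nuclei (final 0.05% Triton X-100, 1% formaldehyde, 1 ug/ml Hoechst), and nuclei were counted on 4× images. Relative viability is the nuclei count in treated wells divided by the count in vehicle wells, and each value is the median of duplicate plates.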

GSK-J4 + Pictilisib = compound: CCOC(=O)CCNc1cc(N2CCc3ccccc3CC2)nc(-c2ccccn2)n1 [GSK-J4] + CS(=O)(=O)N1CCN(Cc2cc3nc(-c4cccc5[nH]ncc45)nc(N4CCOCC4)c3s2)CC1 [Pictilisib] (partner 1 µM)
Outline: as §1

AZ3146 + AZD7762 = compound: CN1CCC(CC1)OC2=CC(=C(C=C2)NC3=NC=C4C(=N3)N(C(=O)N4C)C5CCCC5)OC [AZ3146] + NC(=O)Nc1cc(-c2cccc(F)c2)sc1C(=O)N[C@H]1CCCNC1 [AZD7762] (partner 0.2 µM)
Outline: as §1

GSK-J4 + Luminespib = compound: CCOC(=O)CCNc1cc(N2CCc3ccccc3CC2)nc(-c2ccccn2)n1 [GSK-J4] + CCNC(=O)c1noc(-c2cc(C(C)C)c(O)cc2O)c1-c1ccc(CN2CCOCC2)cc1 [Luminespib] (partner 0.01 µM)
Outline: as §1

Cell Line	relative viability (AZ3146 + OSI-027; first compound 0.08 µM)	relative viability (AZ3146 + OSI-027; first compound 0.253 µM)	relative viability (AZ3146 + OSI-027; first compound 0.8 µM)	relative viability (AZ3146 + OSI-027; first compound 2.53 µM)	relative viability (AZ3146 + OSI-027; first compound 8 µM)	relative viability (GSK-J4 + Pictilisib; first compound 0.5 µM)	relative viability (GSK-J4 + Pictilisib; first compound 1.581 µM)	relative viability (GSK-J4 + Pictilisib; first compound 5 µM)	relative viability (GSK-J4 + Pictilisib; first compound 50 µM)	relative viability (AZ3146 + AZD7762; first compound 0.253 µM)	relative viability (AZ3146 + AZD7762; first compound 0.8 µM)	relative viability (AZ3146 + AZD7762; first compound 2.53 µM)	relative viability (AZ3146 + AZD7762; first compound 8 µM)	relative viability (GSK-J4 + Pictilisib; first compound 15.81 µM)	relative viability (AZ3146 + AZD7762; first compound 0.08 µM)	relative viability (GSK-J4 + Luminespib; first compound 0.5 µM)	relative viability (GSK-J4 + Luminespib; first compound 1.581 µM)	relative viability (GSK-J4 + Luminespib; first compound 5 µM)	relative viability (GSK-J4 + Luminespib; first compound 15.81 µM)	relative viability (GSK-J4 + Luminespib; first compound 50 µM)
HCC-78	0.3	0.381	0.322	0.357	0.365	0.202	0.185	0.889	0.225	0.577	0.57	0.53	0.717	–	–	–	–	–	–	–
HCC-366	0.781	0.85	0.863	0.865	0.884	0.125	–	0.137	0.122	0.288	0.263	0.203	0.112	0.181	0.212	–	–	–	–	–
IA-LM	–	–	–	–	–	0.376	0.202	0.489	0.0942	–	–	–	–	0.251	–	–	–	–	–	–
NCI-H520	0.234	0.255	0.234	0.292	0.233	0.269	0.236	0.303	0.414	–	–	–	–	0.275	–	0.215	0.242	0.207	0.194	0.197
NCI-H522	0.882	0.664	0.527	0.68	0.759	–	–	–	–	0.57	0.807	0.698	0.577	–	0.803	1.22	0.944	1.2	0.612	0.587
NCI-H661	0.74	0.72	0.768	0.764	0.576	0.484	0.463	0.331	0.342	–	–	–	–	0.339	–	0.911	0.902	0.929	0.904	0.6
NCI-H1299	–	–	–	–	–	0.733	0.802	0.849	0.327	–	–	–	–	0.705	–	–	–	–	–	–
NCI-H1563	0.684	0.731	0.765	0.746	0.696	0.695	0.719	0.62	0.619	–	–	–	–	0.709	–	0.513	0.484	0.477	0.502	0.526
NCI-H1623	0.39	0.482	0.458	0.405	0.402	–	–	–	–	–	–	–	–	–	–	0.556	0.427	0.677	0.432	0.283
NCI-H1648	–	0.268	0.233	0.253	0.302	–	–	–	–	–	0.863	0.757	0.624	–	–	–	–	–	–	–
NCI-H1650	0.474	0.622	0.515	0.607	0.395	0.644	0.258	0.622	0.291	–	–	–	–	0.533	–	0.17	0.222	0.228	0.153	0.231
NCI-H1703	–	–	–	–	–	0.254	0.259	0.232	0.275	0.164	0.106	–	0.183	0.195	0.104	–	–	–	–	–
NCI-H2009	0.631	0.621	0.651	0.703	0.436	0.816	0.317	0.673	0.428	–	–	–	–	0.85	–	1.05	0.918	–	0.938	0.407
NCI-H2023	0.42	0.364	0.298	0.362	0.21	0.303	0.182	0.332	0.132	–	–	–	–	0.264	–	0.73	0.685	0.862	0.76	0.472
NCI-H2228	0.484	0.579	0.498	0.615	0.429	0.337	0.304	0.539	0.47	–	–	–	–	0.389	–	0.189	0.124	0.152	0.143	0.124
NCI-H2342	0.592	0.536	0.59	0.508	0.61	–	–	–	–	0.481	0.489	0.521	0.529	–	0.472	0.736	0.783	0.865	0.951	0.858
SK-LU-1	0.358	0.326	0.304	0.342	0.357	0.565	0.543	0.483	0.408	–	–	–	–	0.512	–	0.214	0.195	0.166	0.201	0.212
SK-MES-1	0.659	0.621	0.568	0.569	0.452	0.37	0.265	0.394	0.34	–	–	–	–	0.348	–	0.695	0.731	0.718	0.686	0.37
SW 900	0.459	0.491	0.613	0.549	0.387	–	–	–	–	–	0.59	0.767	0.519	–	0.527	0.195	0.156	0.155	0.177	0.154
SW 1573	0.678	0.633	0.453	0.662	0.204	0.526	0.562	0.549	0.294	–	–	–	–	0.544	–	0.199	0.0964	0.268	0.213	0.148
